Laboratory results: patent US20240383904A1, “HETEROCYCLIC COMPOUNDS” (Hoffmann-La Roche Inc., priority 2021, published 2024)

Molecular target: T1, MAGL (Homo sapiens, UniProt Q99685)
T1 sequence (Q99685 1-303): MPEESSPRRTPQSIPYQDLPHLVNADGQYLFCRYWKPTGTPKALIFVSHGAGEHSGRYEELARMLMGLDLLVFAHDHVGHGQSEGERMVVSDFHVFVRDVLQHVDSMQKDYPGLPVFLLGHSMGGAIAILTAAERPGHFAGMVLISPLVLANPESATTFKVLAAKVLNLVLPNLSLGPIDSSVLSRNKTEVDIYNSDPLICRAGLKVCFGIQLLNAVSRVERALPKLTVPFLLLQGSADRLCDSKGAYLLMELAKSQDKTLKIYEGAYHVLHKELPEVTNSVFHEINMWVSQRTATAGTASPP
Assay: 2-AG assay: MAGL inhibitory activity by hydrolysis of 2-arachidonoylglycerol to arachidonic acid, followed by mass spectrometry
Format: biochemical
Settings: 15 min preincubation, 30 min reaction at RT, 8 μM 2-arachidonoylglycerol

SMILES: N=[S@](=O)(c1cccc(CC2CC3(C2)CN(C(=O)N2CC4(CCCC(=O)N4)C2)C3)c1)C(F)(F)F [Example 293, 2-[6-[[3-(trifluoromethylsulfoni-midoyl)phenyl]methyl]-2-azaspiro[3.3]heptane-2-carbonyl]-2,5-diazaspiro[3.5]nonan-6-one]
- IC50: 69.4 nM

SMILES: O=C1NC2(CO1)CN(C(=O)N1CC3(CC(c4cncc(F)c4)C3)C1)C2 [Example 126, 2-[6-(5-fluoro-3-pyridyl)-2-azaspiro[3.3]heptane-2-carbonyl]-7-oxa-2,5-diazaspiro[3.4]octan-6-one]
- IC50: 21.3 nM

SMILES: O=C1COCC2(CN(C(=O)N3CC4(CN(Cc5ccc(C(F)(F)F)cc5F)C4)C3)C2)N1 [Example 372, 2-[6-[2-fluoro-4-(trifluoromethyl)benzyl]-2,6-diazaspiro[3.3]heptane-2-carbonyl]-8-oxa-2,5-diazaspiro[3.5]nonan-6-one]
- IC50: 15.6 nM

SMILES: O=C1CCC2(CN(C(=O)N3CC4(CCN(S(=O)(=O)C56CC(C(F)(F)F)(C5)C6)CC4)C3)C2)N1 [Example 205, 2-[7-[[3-(trifluoromethyl)-1-bicyclo[1.1.1]pentanyl]sulfonyl]-2,7-diazaspiro[3.5]nonane-2-carbonyl]-2,5-diazaspiro[3.4]octan-6-one]
- IC50: 265 nM

SMILES: O=C1CCC2(CN(C(=O)N3CC4(CCN(Cc5cc(C(F)(F)F)sn5)CC4)C3)C2)N1 [Example 332, 2-[7-[[5-(trifluoromethyl)isothia-zol-3-yl]methyl]-2,7-diazaspiro[3.5]nonane-2-carbonyl]-2,5-diazaspiro[3.4]octan-6-one]
- IC50: 52.7 nM

SMILES: O=C1NC2(CO1)CN(C(=O)N1CC3(CC[C@H](Cc4cnc(C(F)(F)F)cn4)C3)C1)C2 [Example 111, 2-[(6S)-6-[[5-(trifluoromethyl)pyrazin-2-yl]methyl]-2-azaspiro[3.4]octane-2-carbonyl]-7-oxa-2,5-diazaspiro[3.4]octan-6-one]
- IC50: 0.31 nM

SMILES: O=C1CCC2(CN(C(=O)N3CC4(C3)CN(S(=O)(=O)c3ccc(OC(F)(F)F)cc3)C4)C2)N1 [Example 199, 2-[2-[4-(trifluoromethoxy)phenyl]sulfonyl-2,6-diazaspiro[3.3]heptane-6-carbonyl]-2,5-diazaspiro[3.4]octan-6-one]
- IC50: 266 nM

SMILES: O=C1NC2(CO1)CN(C(=O)N1CC3(CC(c4ccc(F)cc4)C3)C1)C2 [Example 115, 2-[6-(4-fluorophenyl)-2-azaspiro[3.3]heptane-2-carbonyl]-7-oxa-2,5-diazaspiro[3.4]octan-6-one]
- IC50: 1.02 nM

SMILES: Cn1ncc(C(F)(F)F)c1CC1CC2(C1)CN(C(=O)N1CC3(CCCC(=O)N3)C1)C2 [Example 277, 2-[6-[[2-methyl-4-(trifluoromethyl)pyrazol-3-yl]methyl]-2-azaspiro[3.3]heptane-2-carbonyl]-2,5-diazaspiro[3.5]nonan-6-one]
- IC50: 195 nM

SMILES: CS(=O)(=O)c1ccc(CN2CCC3(CC2)CN(C(=O)N2CC4(CCC(=O)N4)C2)C3)cc1 [Example 160, 2-[7-(4-mesylbenzyl)-2,7-diazaspiro[3.5]nonane-2-carbonyl]-2,5-diazaspiro[3.4]octan-6-one]
- IC50: 279 nM

SMILES: O=C1NC2(CO1)CN(C(=O)N1CC3(C1)CN(S(=O)(=O)c1cncc(C(F)(F)F)c1)C3)C2 [Example 196, 2-[2-[[5-(trifluoromethyl)-3-pyridyl]sulfonyl]-2,6-diazaspiro[3.3]heptane-6-carbonyl]-7-oxa-2,5-diazaspiro[3.4]octan-6-one]
- IC50: 38.8 nM

SMILES: O=C1CCC2(CN(C(=O)N3CC4(CC(Cc5ncc(Cl)cc5F)C4)C3)C2)N1 [Example 175, 2-[6-[(5-chloro-3-fluoro-2-pyridyl)methyl]-2-azaspiro[3.3]heptane-2-carbonyl]-2,5-diazaspiro[3.4]octan-6-one]
- IC50: 1.69 nM

SMILES: CS(=O)(=O)c1cc(CC2CC3(C2)CN(C(=O)N2CC4(COC(=O)N4)C2)C3)ccc1C(F)(F)F [Example 29, 2-[6-[3-mesyl-4-(trifluoromethyl)benzyl]-2-azaspiro[3.3]heptane-2-carbonyl]-7-oxa-2,5-diazaspiro[3.4]octan-6-one]
- IC50: 0.34 nM
